Results taken from ChEMBL document CHEMBL5247590, “Novel nitrogen mustard-artemisinin hybrids with potent anti-leukemia action through DNA damage and activation of GPx” (Eur J Med Chem, 2022).
Activity calls are given as the source filed them. No cut-off for these calls is given here.

Assays:
CCRF-CEM [1] = assay: Induction of apoptosis in human CCRF-CEM cells assessed effect on procaspase-3 expression at 0.25 to 0.5 uM incubated for 48 hrs by Western blot analysis; format: functional, cell-based; details: dose 0.25-0.5 µM
CCRF-CEM [2] = assay: Induction of apoptosis in human CCRF-CEM cells assessed as necrotic cells at 0.25 uM incubated for 48 hrs by Annexin V-FITC/PI staining based flow cytometry (reference value: 0.0 %); format: functional
CCRF-CEM [3] = assay: Induction of apoptosis in human CCRF-CEM cells assessed as viable cells at 0.5 uM incubated for 48 hrs by Annexin V-FITC/PI staining based flow cytometry (reference value: 83.4 %); format: functional; details: read-out: Activity
CCRF-CEM [4] = assay: Induction of cell cycle arrest in human CCRF-CEM cells assessed as cell accumulation at G2/M phase at 1 uM incubated for 24 hrs by PI staining based flow cytometry analysis (reference value: 61.3 %); format: functional
CCRF-CEM [5] = assay: Induction of apoptosis in human CCRF-CEM cells assessed as early apoptotic cells at 0.5 uM incubated for 48 hrs by Annexin V-FITC/PI staining based flow cytometry (reference value: 13.4 %); format: functional
K562 = assay: Antiproliferative activity against human K562 cells assessed as cell growth inhibition incubated for 72 hrs by MTT assay; format: functional, cell-based; details: K562, 72 h
CCRF-CEM [6] = assay: Downregulation of ROS level in human CCRF-CEM cells assessed as increase in GPx activity at 0.125 to 2 uM incubated for 12 hrs in presence of NADPH by […]; format: functional, cell-based; details: dose 0.125-2 µM
CCRF-CEM [7] = assay: Induction of apoptosis in human CCRF-CEM cells assessed as viable cells at 4 uM incubated for 48 hrs by Annexin V-FITC/PI staining based flow cytometry (reference value: 83.4 %); format: functional; details: read-out: Activity
CCRF-CEM [8] = assay: Induction of cell cycle arrest in human CCRF-CEM cells assessed as cell accumulation at G2/M phase at 0.25 uM incubated for 24 hrs by PI staining based flow cytometry analysis (reference value: 61.3 %); format: functional
HL-60 = assay: Antiproliferative activity against human HL-60 cells assessed as cell growth inhibition incubated for 72 hrs by MTT assay; format: functional, cell-based; details: HL-60, 72 h
CCRF-CEM [9] = assay: Induction of DNA damage in human CCRF-CEM cells assessed as increase in gammaH2AX phosphorylation incubated for 24 hrs by DAPI staining based immunofluorescence microscopic analysis; format: functional, cell-based; details: dose 1-4 µM
CCRF-CEM [10] = assay: Induction of apoptosis in human CCRF-CEM cells incubated for 48 hrs by Hoechst staining based fluorescent microscopy; format: functional, cell-based; details: dose 1-4 µM
CCRF-CEM [11] = assay: Downregulation of ROS level in human CCRF-CEM cells assessed as CAT level at 1 uM incubated for 12 hrs in presence of NADPH by absorbance based assay; format: functional, cell-based
CCRF-CEM [12] = assay: Induction of cell cycle arrest in human CCRF-CEM cells assessed as cell accumulation at G1 phase at 0.5 uM incubated for 24 hrs by PI staining based flow cytometry analysis (reference value: 24.1 %); format: functional
CCRF-CEM [13] = assay: Downregulation of ROS level in human CCRF-CEM cells assessed as effect on H2O2 level at 0.125 to 0.5 uM incubated for 12 hrs in presence of NADPH by DCFH-DA probe based flow cytometry analysis; format: functional, cell-based; details: dose 0.125-0.5 µM
CCRF-CEM [14] = assay: Induction of cell cycle arrest in human CCRF-CEM cells assessed as cell accumulation at G1 phase at 0.25 uM incubated for 24 hrs by PI staining based flow cytometry analysis (reference value: 24.1 %); format: functional
CCRF-CEM [15] = assay: Antiproliferative activity against human CCRF-CEM cells assessed as cell growth inhibition incubated for 24 to 72 hrs by CCK8 assay; format: functional, cell-based; details: dose 0.1875-20 µM, time 24-72 hrs
SH-SY5Y = assay: Antiproliferative activity against human SH-SY5Y cells assessed as cell growth inhibition incubated for 72 hrs by MTT assay; format: functional, cell-based
CCRF-CEM [16] = assay: Induction of DNA damage in human CCRF-CEM cells assessed as increase in gammaH2AX phosphorylation at 1 to 4 uM incubated for 24 hrs by DAPI staining based immunofluorescence microscopic analysis; format: functional, cell-based; details: dose 1-4 µM
CCRF-CEM [17] = assay: Induction of cell cycle arrest in human CCRF-CEM cells assessed as cell accumulation at G1 phase at 2 uM incubated for 24 hrs by PI staining based flow cytometry analysis (reference value: 24.1 %); format: functional
[18] = Selectivity index, ratio of IC50 for human HL-60 cells to IC50 for human CCRF-CEM cells
CCRF-CEM [19] = assay: Induction of apoptosis in human CCRF-CEM cells assessed as necrotic cells at 2 uM incubated for 48 hrs by Annexin V-FITC/PI staining based flow cytometry (reference value: 0.0 %); format: functional
U-118-MG = assay: Antiproliferative activity against human U-118-MG cells assessed as cell growth inhibition incubated for 72 hrs by MTT assay; format: functional, cell-based
CCRF-CEM [20] = assay: Downregulation of ROS level in human CCRF-CEM cells assessed as H2O2 level at 1 uM incubated for 12 hrs in presence of NADPH by absorbance based assay; format: functional, cell-based
CCRF-CEM [21] = assay: Induction of apoptosis in human CCRF-CEM cells assessed as early apoptotic cells at 0.25 uM incubated for 48 hrs by Annexin V-FITC/PI staining based flow cytometry (reference value: 13.4 %); format: functional
CCRF-CEM [22] = assay: Induction of apoptosis in human CCRF-CEM cells assessed as nuclear collapse upto 4 uM incubated for 48 hrs by Hoechst staining based fluorescent microscopic analysis; format: functional, cell-based
CCRF-CEM [23] = assay: Induction of cell cycle arrest in human CCRF-CEM cells assessed as cell accumulation at S phase at 1 uM incubated for 24 hrs by PI staining based flow cytometry analysis (reference value: 15.5 %); format: functional
CCRF-CEM [24] = assay: Induction of apoptosis in human CCRF-CEM cells assessed as viable cells at 2 uM incubated for 48 hrs by Annexin V-FITC/PI staining based flow cytometry (reference value: 83.4 %); format: functional; details: read-out: Activity
CCRF-CEM [25] = assay: Induction of cell cycle arrest in human CCRF-CEM cells assessed as cell accumulation at G2/M phase at 0.5 uM incubated for 24 hrs by PI staining based flow cytometry analysis (reference value: 61.3 %); format: functional
CCRF-CEM [26] = assay: Induction of apoptosis in human CCRF-CEM cells assessed as nuclear condensation upto 4 uM incubated for 48 hrs by Hoechst staining based fluorescent microscopic analysis; format: functional, cell-based
CCRF-CEM [27] = assay: Induction of apoptosis in human CCRF-CEM cells assessed as late apoptotic cells at 0.5 uM incubated for 48 hrs by Annexin V-FITC/PI staining based flow cytometry (reference value: 3.2 %); format: functional
CCRF-CEM [28] = assay: Induction of apoptosis in human CCRF-CEM cells assessed as necrotic cells at 4 uM incubated for 48 hrs by Annexin V-FITC/PI staining based flow cytometry (reference value: 0.0 %); format: functional
CCRF-CEM [29] = assay: Induction of apoptosis in human CCRF-CEM cells assessed as viable cells at 0.25 uM incubated for 48 hrs by Annexin V-FITC/PI staining based flow cytometry (reference value: 83.4 %); format: functional; details: read-out: Activity
CCRF-CEM [30] = assay: Induction of cell cycle arrest in human CCRF-CEM cells assessed as cell accumulation at S phase at 0.25 uM incubated for 24 hrs by PI staining based flow cytometry analysis (reference value: 15.5 %); format: functional

C[C@@H]1CC[C@H]2[C@@H](C)C(OC(=O)c3ccc(N(CCCl)CCCl)cc3)O[C@@H]3O[C@@]4(C)CC[C@@H]1[C@]32OO4 (some centres undefined)
Activity (CCRF-CEM [1]): inactive | Activity (CCRF-CEM [2]): 0.1% | viability at 0.5 µM (CCRF-CEM [3]): 64.4% | Activity (CCRF-CEM [4]): 47.6% | Activity (CCRF-CEM [5]): 78.6% | IC50 (K562): 22 µM | Activity (CCRF-CEM [6]): Active | viability at 4 µM (CCRF-CEM [7]): 47.8% | Activity (CCRF-CEM [8]): 65.9% | IC50 (HL-60): 2.32 µM | Activity (CCRF-CEM [9]): Dose-Dependent Effect | Activity (CCRF-CEM [10]): Dose-Dependent Effect | Activity (CCRF-CEM [11]): inactive | Activity (CCRF-CEM [12]): 22.8% | Activity (CCRF-CEM [13]): Active | Activity (CCRF-CEM [14]): 26.8% | Activity (CCRF-CEM [15]): Dose-Dependent Effect | IC50 (SH-SY5Y): > 40 µM | Activity (CCRF-CEM [16]): Active | Activity (CCRF-CEM [17]): 26.9% | Selectivity Index [18]: 17.2 | Activity (CCRF-CEM [19]): 0.1% | IC50 (U-118-MG): > 40 µM | Activity (CCRF-CEM [20]): inactive | Activity (CCRF-CEM [21]): 20.5% | Activity (CCRF-CEM [22]): Active | Activity (CCRF-CEM [23]): 35.1% | viability at 2 µM (CCRF-CEM [24]): 53.8% | Activity (CCRF-CEM [25]): 70.8% | Activity (CCRF-CEM [26]): Active | Activity (CCRF-CEM [27]): 6.9% | Activity (CCRF-CEM [28]): 0.1% | viability at 0.25 µM (CCRF-CEM [29]): 67.7% | Activity (CCRF-CEM [30]): 7.9%
